Where a name gives a salt, the structure may show the parent alone.
Molecular target: GSK3β (Homo sapiens (Human), UniProt P49841)
Assay: In vitro biochemical GSK3β inhibition assay (fluorescence, NADH-coupled)
Conditions: 5 nM GSK3β, 40 μM substrate GSM, 50 μM ATP, 30° C., 2 hours
Description: The inhibitory activity of active substances is determined in a biochemical assay. The ingredients required for this purpose are mixed in a black 384-well microtiter plate with transparent base (from Greiner, catalog number 781092). The requirements in this connection for each well of the 384-well microtiter plate are 5 nM GSK3β (from Upstate, catalog number xy), 40 μM GSK3β substrate GSM (sequence H-RRRPASVPPSPSLSRHS-(pS)-HQRR, from Upstate, catalog number 2-533), 30 μM nicotinamide adenine dinucleotide NADH (Roche Diagnostics, catalog number 10107735), 50 μM adenosine triphosphate ATP (from Sigma, catalog number A7966) and 2 mM phosphoenolpyruvate (from Roche, catalog number 128112). The required reaction buffer in which the biochemical reaction takes place consists of 50 mM Trizma hydrochloride Tris-HCl pH: 7.5 (from Sigma, catalog number T3253), 5 mM magnesium chloride MgCl2 (from Sigma, catalog number M8266), 0.2 mM DL-dithiothreitol DTT (from Sigma, catalog number D9779), 2 mM ethylenediaminetetraacetic acid EDTA (from Sigma, catalog number E6758), 0.01% Triton X-100 (from Sigma, catalog number T8787) and 0.05% bovine serum albumin BSA (from Sigma, catalog number B4287).
Active substances are dissolved in dimethyl sulfoxide DMSO (from Sigma, catalog number D8418) in a concentration of 10 mM. Active substances are added in serial concentrations of 10 μM, 1 μM, 0.1 μM, 0.01 μM, 0.001 μM, 0.0001 μM, 0.00001 μM, 0.000001 μM to the mixtures of the biochemical reaction. As control, dimethyl sulfoxide is added instead of substance in a final concentration of 0.1%.
The reaction is incubated at 30° C. for 2 hours and then the resulting fluorescence is measured in a Tecan Safire-XFLUOR4 instrument, version V4.50 (serial number 12901300283) with the specifications: measurement mode—fluorescence measured from below, extinction wavelength 340 nm, emission wavelength 465 nm, slit width extinction 5 nm, slit width emission 5 nm, gain mode 120, delay 0 μs, number of light flashes per measurement 3, and an integration time of 40 μs.
The activity of the active substances is calculated in relation to these 0% and 100%.

GSK3β, sequence (P49841 whole entry, species assumed): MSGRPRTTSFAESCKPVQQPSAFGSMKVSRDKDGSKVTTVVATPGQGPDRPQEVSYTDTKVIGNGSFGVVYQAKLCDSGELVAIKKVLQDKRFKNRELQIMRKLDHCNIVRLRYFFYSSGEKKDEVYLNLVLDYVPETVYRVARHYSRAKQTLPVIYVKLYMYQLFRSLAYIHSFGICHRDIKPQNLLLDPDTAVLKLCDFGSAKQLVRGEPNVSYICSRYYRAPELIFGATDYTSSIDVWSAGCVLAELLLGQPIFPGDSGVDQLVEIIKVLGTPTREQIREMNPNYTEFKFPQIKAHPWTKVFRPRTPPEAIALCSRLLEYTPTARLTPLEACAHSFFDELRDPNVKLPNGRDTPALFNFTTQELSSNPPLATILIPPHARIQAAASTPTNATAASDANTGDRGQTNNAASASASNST

| SMILES | IC50 [nM] |
| --- | --- |
| N#Cc1ccc(NCCNc2nc(-c3ccc(Cl)cc3Cl)cn3nc(C(=O)O)cc23)nc1 [Example 4, 4-({2-[(5-Cyanopyridin-2-yl)amino]ethyl}amino)-6-(2,4-dichlorophenyl)pyrazolo[1,5-a]pyrazine-2-carboxylic acid hydrochloride] | 21 |
| CN1CCN(CCNC(=O)c2cc3c(NCCNc4ccc(C#N)cn4)nc(-c4ccc(Cl)cc4Cl)cn3n2)CC1 [Example 5] | 30 |
| Cc1nc(C)n2nc(-c3ccccc3)nc(NCCNc3ccc(C#N)cn3)c12 [Example 9, 6-({2-[(5,7-Dimethyl-2-phenylimidazo[5,1-f][1,2,4]triazin-4-yl)amino]ethyl}amino)nicotinonitrile] | 310 |
| CCOC(=O)c1cc2c(N3CCCC(Nc4nc(N)c(C(C)=O)s4)C3)nc(-c3ccc(Cl)cc3Cl)cn2n1 (stereo not shown) [Example 17, Ethyl 4-{3-[(5-acetyl-4-amino-1,3-thiazol-2-yl)amino]piperidin-1-yl}-6-(2,4-dichlorophenyl)pyrazolo[1,5-a]pyrazine-2-carboxylate trifluoroacetate] | 8 |
| N#Cc1sc(NC2CCCN(c3nc(-c4ccc(Cl)cc4Cl)cn4nc(C(=O)O)cc34)C2)nc1N (stereo not shown) [Example 19] | 3 |
| N#Cc1sc(NCCNc2nc(-c3ccc(Cl)cc3Cl)cn3nc(C(=O)NCC(=O)O)cc23)nc1N [Example 24] | 5 |
| N#Cc1ccc(NCCNc2nc(-c3ccc(Cl)cc3Cl)cn3nc(CNC4CC4)cc23)nc1 [Example 58] | 80 |
